The structures appear in SMILES notation.

In assay [1] the test system is Cryptosporidium parvum. The assay can be described thus: Antiparasitic activity against Cryptosporidium parvum in HCT8 cells. It is filed as functional, organism-based. The settings on record: HCT-8.
Assay [2] concerns Meriones unguiculatus. The assay can be described thus: Reduction of oocyst in stools of Cryptosporidium parvum infected gerbils treated with 400 mg/kg at day 8. It is filed as functional. Details: scale not given: the % may be the effect or the level left.
Assay [3] relates to Meriones unguiculatus. The assay can be described thus: Deparasitization of Cryptosporidium parvum infected gerbils treated with 400 mg/kg at day 12. The format is functional.
The test system of assay [4] is Meriones unguiculatus. The experiment in a line: Reduction of oocyst in stools of Cryptosporidium parvum infected gerbils treated with 400 mg/kg at day 12. The format is functional. Details: scale not given: the % may be the effect or the level left.
Assay [5] has as its system Meriones unguiculatus. The experiment in a line: Reduction of oocyst in stools of Cryptosporidium parvum infected gerbils treated with 100 mg/kg at day 8. Details: scale not given: the % may be the effect or the level left. It is filed as functional.
Assay [6] concerns Meriones unguiculatus. The experiment in a line: Deparasitization of Cryptosporidium parvum infected gerbils treated with 100 mg/kg at day 8. The format is functional.
Assay [7] deals with Meriones unguiculatus. The experiment in a line: Reduction of oocyst in stools of Cryptosporidium parvum infected gerbils treated with 200 mg/kg at day 8. The format is functional. Details: scale not given: the % may be the effect or the level left.
For assay [8], the system named is Meriones unguiculatus. The assay can be described thus: Deparasitization of Cryptosporidium parvum infected gerbils treated with 200 mg/kg at day 8. It is filed as functional.
The subject of assay [9] is Meriones unguiculatus. The experiment in a line: Deparasitization of Cryptosporidium parvum infected gerbils treated with 400 mg/kg at day 8. The format is functional.
Assay [10] deals with Plasmodium falciparum. The experiment in a line: Antiparasitic activity against Plasmodium falciparum T9-96 infected […] cells. The format is functional, organism-based.
The subject of assay [11] is Trichomonas vaginalis. The assay can be described thus: Antiparasitic activity against Trichomonas vaginalis in […] cells. The format is functional, organism-based. The settings on record: UCH-1.

Regarding `CCOC(=O)c1oc2cc(O)cc(O)c2c(=O)c1-c1cccc([N+](=O)[O-])c1`, the IC50 in [1] came to 15.8 µM.

On to `O=C(Cc1cccc([N+](=O)[O-])c1)c1c(O)cc(O)cc1O`, for which inhibition in assay [1] was half-maximal at 464 µM (IC50).

In turn, `O=C(O)c1oc2cc(O)cc(O)c2c(=O)c1-c1cccc(Br)c1` showed an IC50 in assay [1] of 20.1 µM.

With `O=C(Cc1cccc(Br)c1)c1c(O)cc(O)cc1O`, in [1], the half-maximal inhibitory concentration (IC50) was 17.2 µM.

Molecule `O=C1c2c(O)cc(O)cc2OCC1c1ccc([N+](=O)[O-])cc1` (stereo not drawn) showed a concentration for half-maximal inhibition (IC50) in [1] of 11.7 µM.

In turn, `O=C(Cc1ccc([N+](=O)[O-])cc1)c1c(O)cc(O)cc1O` showed an IC50 in assay [1] of 70.8 µM.

With `CCOC(=O)c1oc2cc(O)cc(O)c2c(=O)c1-c1ccc(Br)cc1`, the Activity in assay [2] was 53.5%; in assay [3] it was 13%; in assay [4], 67%. This molecule showed an IC50 in [1] of 0.6 µM.

With `NC[C@@H]1O[C@H](O[C@H]2[C@@H](O)[C@H](O[C@@H]3[C@@H](O)[C@H](N)C[C@H](N)[C@H]3O[C@H]3O[C@H](CO)[C@@H](O)[C@H](O)[C@H]3N)O[C@@H]2CO)[C@H](N)[C@@H](O)[C@@H]1O` [PAROMOMYCIN], the Activity was 17.6% in assay [5] and 14% in assay [6].

Consider `O=c1c(-c2ccc(Br)cc2)coc2cc(O)cc(O)c12`, for which half-maximal inhibition in assay [1] (IC50) required 1.3 µM.

`O=C(Cc1ccc(Br)cc1)c1c(O)cc(O)cc1O` displayed a concentration for half-maximal inhibition (IC50) in assay [1] of 15.9 µM.

Consider `CC(=O)Oc1ccccc1C(=O)Nc1ncc([N+](=O)[O-])s1` [NITAZOXANIDE], for which the results for the Activity in [7] and in assay [8] were 55% and 14%, respectively. In [1], this molecule returned an IC50 of 3.25 µM.

In the case of `CCOC(=O)c1oc2cc(O)cc(O)c2c(=O)c1-c1cccc(Br)c1`, the Activity was determined as 90.5% in [7], 60% in assay [9], 92% in assay [2] and 60% in assay [8]. The half-maximal inhibitory concentration (IC50) in [1] is 1.6 µM.

As to `O=c1c(-c2cccc([N+](=O)[O-])c2)coc2cc(O)cc(O)c12`, the IC50 in [1] stood at 0.3 µM.

`O=c1c(-c2ccc([N+](=O)[O-])cc2)coc2cc(O)cc(O)c12`: the results for the IC50 in assay [10], in assay [11] and in [1] were 20 µM, 8 µM and 1.8 µM, respectively.

In assay [1], `O=c1c(-c2cccc(Br)c2)coc2cc(O)cc(O)c12` gave an IC50 of 0.4 µM.

In turn, `CCOC(=O)c1oc2cc(O)cc(O)c2c(=O)c1-c1ccc([N+](=O)[O-])cc1` returned an IC50 in [1] of 64.1 µM.

For orientation: IC50 means the concentration needed to halve the response being measured.

For the origin of these results see ChEMBL document CHEMBL1149465, “Identification of isoflavone derivatives as effective anticryptosporidial agents in vitro and in vivo” (J Med Chem, 2006).
